Patent publication US8148349B2, “Nucleoside cyclic phosphoramidates for the treatment of RNA-dependent RNA viral infection” (Istituto di Ricerche di Biologia Molecolare P. Angeletti …, priority 2006, dated 2012)

Tested on: subgenomic HCV Replicon in HuH-7 cells
Assay: Assay for Inhibition of HCV RNA Replication (Replicon assay)
Type: cell-based, Hepatitis C Virus
Settings: Hepatitis C virus, Huh-7, read-out: Replicon Assay EC50
Experimental: A. Assay for Inhibition of HCV RNA Replication:
The compounds of the present invention are evaluated for their ability to affect the replication of Hepatitis C Virus RNA in cultured hepatoma (HuH-7) cells containing a subgenomic HCV Replicon. The details of the assay are described below. This Replicon assay is a modification of that described in V. Lohmann, F. Korner, J-O. Koch, U. Herian, L. Theilmann, and R. Bartenschlager, “Replication of a Sub-genomic Hepatitis C Virus RNAs in a Hepatoma Cell Line,” Science 285:110 (1999).
The assay is an in situ Ribonuclease protection, Scintillation Proximity based-plate assay (SPA). 10,000-40,000 cells are plated in 100-200 μL of media containing 0.8 mg/mL G418 in 96-well cytostar plates (Amersham). Compounds are added to cells at various concentrations up to 100 μM in 1% DMSO at time 0 to 18 h and then cultured for 24-96 h. Cells are fixed (20 min, 10% formalin), permeabilized (20 min, 0.25% Triton X-100/PBS) and hybridized (overnight, 50° C.) with a single-stranded ^33P RNA probe complementary to the (+) strand NS5B (or other genes) contained in the RNA viral genome. Cells are washed, treated with RNAse, washed, heated to 65° C. and counted in a Top-Count. Inhibition of replication is read as a decrease in counts per minute (cpm).
Human HuH-7 hepatoma cells, which are selected to contain a subgenomic replicon, carry a cytoplasmic RNA consisting of an HCV 5′ non-translated region (NTR), a neomycin selectable marker, an EMCV IRES (internal ribosome entry site), and HCV non-structural proteins NS3 through NS5B, followed by the 3′ NTR.

Compound | EC50
CCC[C@H](NP1(=O)OC[C@H]2O[C@@H](n3ccc(N)nc3=O)[C@](C)(O)[C@@H]2O1)C(=O)OCC (stereo partly drawn) [Example 8, ethyl N-[(4aR,6R,7R,7aR)-6-(4-amino-2-oxopyrimidin-1(2H)-yl)-7-hydroxy-7-methyl-2-oxidotetrahydro-4H-furo[3,2-d][1,3,2]dioxaphosphinin-2-yl]-L-norvalinate] | > 20 µM
CCOC(=O)[C@H](C)NP1(=O)OC[C@H]2O[C@@H](n3ccc(N)nc3=O)[C@](C)(O)[C@@H]2O1 (stereo partly drawn) [Example 10, ethyl N-[(4aR,6R,7R,7aR)-6-(4-amino-2-oxopyrimidin-1(2H)-yl)-7-hydroxy-7-methyl-2oxidotetrahydro-4H-furo[3,2-d][1,3,2]-dioxaphosphinin-2-yl]-L-alaninate] | 4 µM
CCCCOC(=O)[C@H](C)NP1(=O)OC[C@H]2O[C@@H](n3ccc(N)nc3=O)[C@](C)(O)[C@@H]2O1 (stereo partly drawn) [Example 5, n-butyl N-[(4aR,6R,7R,7aR)-6-(4-amino-2-oxopyrimidin-1(2H)-yl)-7-hydroxy-7-methyl-2-oxidotetrahydro-4H-furo[3,2d][1,3,2]dioxaphosphinin-2-yl]-L-alaninate] | 15 µM
CCCCOC(=O)[C@H](C)NP1(=O)OC[C@H]2O[C@@H](n3ccc(N)nc3=O)[C@](C)(O)[C@@H]2O1 (single isomer, unassigned) [Example 1] | 15 µM
CCOC(=O)[C@H](CC)NP1(=O)OC[C@H]2O[C@@H](n3ccc(N)nc3=O)[C@](C)(O)[C@@H]2O1 (stereo partly drawn) [Example 6, ethyl (2S)-2-{[(4aR,6R,7R,7aR)-6-(4-amino-2-oxopyrimidin-1(2H)-yl)-7-hydroxy-7-methyl-2-oxidotetrahydro-4H-furo[3,2d][1,3,2]dioxaphosphinin-2-yl]amino}butanoate] | 6 µM
CCOC(=O)[C@H](C)NP1(=O)OC[C@H]2O[C@@H](n3ccc(N)nc3=O)[C@](C)(O)[C@@H]2O1 (single isomer, unassigned) [Example 2] | 4 µM
C[C@H](NP1(=O)OC[C@H]2O[C@@H](n3ccc(N)nc3=O)[C@](C)(O)[C@@H]2O1)C(=O)OC(C)(C)C (stereo partly drawn) [Example 4, tert-butyl N-[(4aR,6R,7R,7aR)-6-(4-amino-2-oxopyrimidin-1(2H)-yl)-7-hydroxy-7-methyl-2-oxidotetrahydro-4H-furo[3,2d][1,3,2]dioxaphosphinin-2-yl]-L-alaninate] | > 20 µM

Same assay, conditions: Hepatitis C virus; HuH-7 cells containing a subgenomic HCV Replicon; read-out: Replicon Assay EC50

Compound | EC50
CCC(CC)COC(=O)[C@H](C)NP1(=O)OC[C@H]2O[C@@H](n3ccc(N)nc3=O)[C@](C)(O)[C@@H]2O1 (stereo partly drawn) [Example 15, 2-ethylbutyl N-[(4aR,6R,7R,7aR)-6-(4-amino-2-oxopyrimidin-1(2H)-yl)-7-hydroxy-7-methyl-2-oxidotetrahydro-4H-furo[3,2-d][1,3,2]dioxaphosphinin-2-yl]-L-alaninate] | > 20 µM
CCCCCCCOC(=O)[C@H](C)NP1(=O)OC[C@H]2O[C@@H](n3ccc(N)nc3=O)[C@](C)(O)[C@@H]2O1 (single isomer, unassigned) [Example 3] | 5 µM
CCCC(CCC)COC(=O)[C@H](C)NP1(=O)OC[C@H]2O[C@@H](n3ccc(N)nc3=O)[C@](C)(O)[C@@H]2O1 (stereo partly drawn) [Example 16, 2-propylpentyl N-[(4aR,6R,7R,7aR)-6-(4-amino-2-oxopyrimidin-1(2H)-yl)-7-hydroxy-7-methyl-2-oxidotetrahydro-4H-furo[3,2-d][1,3,2]dioxaphosphinin-2-yl]-L-alaninate] | 14 µM
C[C@H](NP1(=O)OC[C@H]2O[C@@H](n3ccc(N)nc3=O)[C@](C)(O)[C@@H]2O1)C(=O)OC1CCCC1 (stereo partly drawn) [Example 9, cyclopentyl N-[(4aR,6R,7R,7aR)-6-(4-amino-2-oxopyrimidin-1(2H)-yl)-7-hydroxy-7-methyl-2-oxidotetrahydro-4H-furo[3,2d][1,3,2]-dioxaphosphinin-2-yl]-L-alaninate] | > 20 µM
C[C@H](NP1(=O)OC[C@H]2O[C@@H](n3ccc(N)nc3=O)[C@](C)(O)[C@@H]2O1)C(=O)OC1CCCCC1 (stereo partly drawn) [Example 12, cyclohexyl N-[(4aR,6R,7R,7aR)-6-(4-amino-2-oxopyrimidin-1(2H)-yl)-7-hydroxy-7-methyl-2oxidotetrahydro-4Hfuro[3,2d][1,3,2]dioxaphosphinin-2-yl]-L-alaninate] | > 20 µM
CCCCCCOCCOC(=O)[C@H](C)NP1(=O)OC[C@H]2O[C@@H](n3ccc(N)nc3=O)[C@](C)(O)[C@@H]2O1 (stereo partly drawn) [Example 17, 2-(hexyloxy)ethyl N-[(4aR,6R,7R,7aR)-6-(4-amino-2-oxopyrimidin-1(2H)-yl)-7-hydroxy-7-methyl-2-oxidotetrahydro-4H-furo[3,2-d][1,3,2]dioxaphosphinin-2-yl]-L-alaninate] | 15 µM
CC(C)CCOC(=O)[C@H](C)NP1(=O)OC[C@H]2O[C@@H](n3ccc(N)nc3=O)[C@](C)(O)[C@@H]2O1 (stereo partly drawn) [Example 13, isopentyl N-[(4aR,6R,7R,7aR)-6-(4-amino-2-oxopyrimidin-1(2H)-yl)-7-hydroxy-7-methyl-2-oxidotetrahydro-4H-furo[3,2d][1,3,2]-dioxaphosphinin-2-yl]-L-alaninate] | > 20 µM
CCCC(CCC)C(=O)Nc1ccn([C@@H]2O[C@@H]3COP(=O)(N[C@@H](C)C(=O)OCC)O[C@H]3[C@@]2(C)O)c(=O)n1 (stereo partly drawn) [Example 21, ethyl N-{(4aR,6R,7R,7aR)-7-hydroxy-7-methyl-2-oxido-6-[2-oxo-4-[(2-propylpentanoyl)amino]pyrimidin-1(2H)-yl]tetrahydro-4H-furo[3,2-d][1,3,2]dioxaphosphinin-2-yl}-L-alaninate] | > 20 µM
CCCCCCCOC(=O)[C@H](C)NP1(=O)OC[C@H]2O[C@@H](n3ccc(N)nc3=O)[C@](C)(O)[C@@H]2O1 (stereo partly drawn) [Example 11, n-heptyl N-[(4aR,6R,7R,7aR)-6-(4-amino-2-oxopyrimidin-1(2H)-yl)-7-hydroxy-7-methyl-2oxidotetrahydro-4Hfuro[3,2d][1,3,2]-dioxaphosphinin-2-yl]-L-alaninate] | 10 µM
C[C@H](NP1(=O)OC[C@H]2O[C@@H](n3ccc(N)nc3=O)[C@](C)(O)[C@@H]2O1)C(=O)OC1CCCCCC1 (stereo partly drawn) [Example 18, cycloheptyl N-[(4aR,6R,7R,7aR)-6-(4-amino-2-oxopyrimidin-1(2H)-yl)-7-hydroxy-7-methyl-2-oxidotetrahydro-4H-furo[3,2-d][1,3,2]dioxaphosphinin-2-yl]-L-alaninate] | > 10 µM
CCCCCCCOC(=O)[C@H](C)NP1(=O)OC[C@H]2O[C@@H](n3ccc(NC(=O)OCCCN(C)C)nc3=O)[C@](C)(O)[C@@H]2O1 (stereo partly drawn) [Example 23, n-heptyl N-{(4aR,6R,7R,7aR)-6-[4-({[3-(dimethylamino)propoxy]carbonyl}amino)-2-oxopyrimidin-1(2H)-yl]-7-hydroxy-7-methyl-2-oxidotetrahydro-4H-furo[3,2-d][1,3,2]dioxaphosphinin-2-yl}-L-alaninate] | > 20 µM
CCOC(=O)[C@H](CC(C)C)NP1(=O)OC[C@H]2O[C@@H](n3ccc(N)nc3=O)[C@](C)(O)[C@@H]2O1 (stereo partly drawn) [Example 7, ethyl N-[(4aR,6R,7R,7aR)-6-(4-amino-2-oxopyrimidin-1(2H)-yl)-7-hydroxy-7-methyl-2-oxidotetrahydro-4H-furo[3,2-d][1,3,2]dioxaphosphinin-2-yl]-L-leucinate] | 50 µM
C[C@H](NP1(=O)OC[C@H]2O[C@@H](n3ccc(N)nc3=O)[C@](C)(O)[C@@H]2O1)C(=O)OCCCC1CCCCC1 (stereo partly drawn) [Example 19, 3-cyclohexylpropyl N-[(4aR,6R,7R,7aR)-6-(4-amino-2-oxopyrimidin-1(2H)-yl)-7-hydroxy-7-methyl-2-oxidotetrahydro-4H-furo[3,2-d][1,3,2]dioxaphosphinin-2-yl]-L-alaninate] | 10 µM
CCCC(CCC)C(=O)Nc1ccn([C@@H]2O[C@@H]3COP(=O)(N[C@@H](CC)C(=O)OCC)O[C@H]3[C@@]2(C)O)c(=O)n1 (stereo partly drawn) [Example 20, Ethyl (2S)-2-({(4aR,6R,7R,7aR)-7-hydroxy-7-methyl-2-oxido-6-[2-oxo-4-[(2-propylpentanoyl)amino]pyrimidin-1(2H)-yl]tetrahydro-4H-furo[3,2-d][1,3,2]dioxaphosphinin-2-yl}amino)butanoate] | > 20 µM

Same assay, conditions: HuH-7 cells containing a subgenomic HCV Replicon; read-out: Replicon Assay EC50

Compound | EC50
n-heptyl N-{(4aR,6R,7R,7aR)-7-hydroxy-7-methyl-6-[4-[(1-methylene-2-propylpentyl)amino]-2-oxopyrimidin-1(2H)-yl]-2-oxidotetrahydro-4H-furo[3,2-d][1,3,2]dioxaphosphinin-2-yl}-L-alaninate [Example 22] | 12 µM
COCCCOC(=O)[C@H](C)NP1(=O)OC[C@H]2O[C@@H](n3ccc(N)nc3=O)[C@](C)(O)[C@@H]2O1 (stereo partly drawn) [Example 14, 3-methoxypropyl N[(4aR,6R,7R,7aR)-6-(4-amino-2-oxopyrimidin-1(2H)-yl)-7-hydroxy-7-methyl-2-oxidotetrahydro-4H-furo[3,2-d][1,3,2]dioxaphosphinin-2-yl]-L-alaninate] | 28 µM
